Experiments:
Format in all cases: cell-based
[1] = tested on: Raji; assay: Inhibition of TPA-induced EBV-early antigen activation in human Raji cells assessed as early antigen activation at 5000 mol ratio after 48 hrs relative to TPA; design: scale not given: the % may be the effect or the level left; conditions: human gammaherpesvirus 4
[2] = tested on: Raji; assay: Inhibition of TPA-induced EBV-early antigen activation in human Raji cells assessed as early antigen activation at 1000 mol ratio after 48 hrs relative to TPA; design: scale not given: the % may be the effect or the level left; conditions: human gammaherpesvirus 4
[3] = tested on: Raji; assay: Inhibition of TPA-induced EBV-early antigen activation in human Raji cells assessed as early antigen activation at 100 mol ratio after 48 hrs relative to TPA; conditions: human gammaherpesvirus 4
[4] = tested on: Raji; assay: Inhibition of TPA-induced EBV-early antigen activation in human Raji cells assessed as early antigen activation at 10 mol ratio after 48 hrs relative to TPA; conditions: human gammaherpesvirus 4
[5] = tested on: Raji; assay: Inhibition of EBV-early antigen activation in human Raji cells assessed as early antigen activation at 1 uM ratio after 48 hrs; design: scale not given: the % may be the effect or the level left
[6] = Cytotoxicity against human Raji cells assessed as cell viability at 5000 mol ratio after 48 hrs relative to TPA; conditions: read-out: Activity
[7] = Cytotoxicity against human Raji cells assessed as cell viability at 1000 mol ratio after 48 hrs relative to TPA; conditions: read-out: Activity
[8] = Cytotoxicity against human Raji cells assessed as cell viability at 100 mol ratio after 48 hrs relative to TPA; conditions: read-out: Activity
[9] = Cytotoxicity against human Raji cells assessed as cell viability at 10 mol ratio after 48 hrs relative to TPA; conditions: read-out: Activity

| Compound | Activity [1] [%] | Activity [2] [%] | EBV early antigen activation relative to TPA [3] [%] | EBV-EA activation relative to TPA [4] [%] | Activity [5] [%] | viability at 48 h, 5000 mol ratio relative to TPA [6] [%] | viability at 48 h, 1000 mol ratio relative to TPA [7] [%] | viability at 48 h, 100 mol ratio relative to TPA [8] [%] | viability at 48 h, 10 mol ratio relative to TPA [9] [%] |
| --- | --- | --- | --- | --- | --- | --- | --- | --- | --- |
| C=C(C)[C@@H]1CC[C@]2(C(=O)O)CC[C@]3(C)[C@H](CC[C@@H]4[C@@]5(C)CC[C@H](OC(C)=O)C(C)(C)[C@@H]5CC[C@]43C)[C@@H]12 | 0 | 0 | 55.1 | 100 | 0 | 80 | 80 | 80 | 100 |
| CC(=O)O[C@H]1CC[C@]2(C)[C@H]3CC=C4[C@@H]5CC(C)(C)CC[C@]5(C(=O)O)CC[C@@]4(C)[C@]3(C)CC[C@H]2C1(C)C [ACETYL OLEANOLIC ACID] | 0 | 36.4 | 100 | 100 | 1.6 | 50 | 80 | 100 | 100 |
| CC(=O)OC[C@]12CCC(C)(C)C[C@H]1C1=CC[C@@H]3[C@@]4(C)CC[C@H](OC(C)=O)C(C)(C)[C@@H]4CC[C@@]3(C)[C@]1(C)CC2 | 0 | 100 | 100 | 100 | 0 | 50 | 100 | 100 | 100 |
| COC(=O)[C@]12CCC(C)(C)C[C@H]1C1=CC[C@@H]3[C@@]4(C)C[C@@H](O)[C@H](O)C(C)(C)[C@@H]4CC[C@@]3(C)[C@]1(C)CC2 [MASLINIC ACID METHYL ESTER] | 0 | 65.6 | 100 | 100 | 0 | 0 | 80 | 100 | 100 |
| CC1(C)CC[C@]2(CO)CC[C@]3(C)C(=CC[C@@H]4[C@@]5(C)CC[C@H](O)C(C)(C)[C@@H]5CC[C@]43C)[C@@H]2C1 [ERYTHRODIOL] | 0 | 19.3 | 71.7 | 100 | 0 | 10 | 50 | > 80 | 100 |
| CC1(C)CC[C@]2(C(=O)O)CC[C@]3(C)C(=CC[C@@H]4[C@@]5(C)C[C@@H](O)[C@H](O)C(C)(C)[C@@H]5CC[C@]43C)[C@@H]2C1 [MASLINIC ACID] | 0 | 0 | 65.6 | 100 | 0 | 0 | 0 | 70 | 100 |
| C=C(C)[C@@H]1CC[C@]2(C)CC[C@]3(C)[C@H](CC[C@@H]4[C@@]5(C)CC[C@H](OC(C)=O)C(C)(C)[C@@H]5CC[C@]43C)[C@@H]12 [LUPENYL ACETATE] | 0 | 81.8 | 100 | 100 | 0 | 60 | 80 | 100 | 100 |
| C=C(C)[C@@H]1CC[C@]2(CO)CC[C@]3(C)[C@H](CC[C@@H]4[C@@]5(C)CC[C@H](O)C(C)(C)[C@@H]5CC[C@]43C)[C@@H]12 [BETULIN] | 0 | 100 | 100 | 100 | 1.6 | 80 | 100 | 100 | 100 |
| C=C(C)[C@@H]1CC[C@]2(C(=O)O)CC[C@]3(C)[C@H](CC[C@@H]4[C@@]5(C)CC[C@H](O)C(C)(C)[C@@H]5CC[C@]43C)[C@@H]12 [BETULINIC ACID] | 0 | 80 | 100 | – | 0 | 20 | > 80 | 100 | 100 |
| CC1(C)CC[C@]2(C)CC[C@]3(C)C(=CC[C@@H]4[C@@]5(C)C(=O)CC(=O)C(C)(C)[C@@H]5CC[C@]43C)[C@@H]2C1 | 0 | 0 | 100 | 100 | 0 | 0 | 20 | 100 | 100 |
| COC(=O)[C@]12CCC(C)(C)C[C@H]1C1=CC[C@@H]3[C@@]4(C)CC[C@H](O)C(C)(C)[C@@H]4CC[C@@]3(C)[C@]1(C)CC2 [METHYL OLEANOLATE] | 0 | 29.5 | 46.3 | 100 | 0 | 0 | 50 | 80 | 100 |
| CC1(C)CC[C@]2(C(=O)O)CC[C@]3(C)C(=CC[C@@H]4[C@@]5(C)CC[C@H](O)C(C)(C)[C@@H]5CC[C@]43C)[C@@H]2C1 [OLEANOLIC_ACID] | 0 | 30 | 80 | 100 | 2.3 | 20 | 60 | > 80 | 100 |
| CC(=O)O[C@H]1CC[C@]2(C)[C@H]3CC=C4[C@@H]5CC(C)(C)CC[C@]5(CO)CC[C@@]4(C)[C@]3(C)CC[C@H]2C1(C)C | 0 | 32.3 | 59.4 | 100 | 0 | 40 | 70 | > 80 | 100 |
| C=C(C)[C@@H]1CC[C@]2(C(=O)OC)CC[C@]3(C)[C@H](CC[C@@H]4[C@@]5(C)CC[C@H](O)C(C)(C)[C@@H]5CC[C@]43C)[C@@H]12 [METHYL BETULINATE] | 0 | 71.5 | 100 | 100 | 0 | 80 | > 80 | 100 | 100 |
| CC(=O)O[C@H]1CC[C@]2(C)[C@H]3CC=C4[C@@H]5CC(C)(C)CC[C@]5(C=O)CC[C@@]4(C)[C@]3(C)CC[C@H]2C1(C)C | 0 | 100 | 100 | 100 | 0 | 40 | 100 | 100 | 100 |
| CC(=O)O[C@@H]1C[C@]2(C)[C@H]3CC=C4[C@@H]5CC(C)(C)CC[C@]5(C(=O)O)CC[C@@]4(C)[C@]3(C)CC[C@H]2C(C)(C)[C@H]1OC(C)=O | 0 | 0 | 59.6 | 100 | 0 | 0 | 20 | 70 | 100 |

— ChEMBL document CHEMBL1150740, “Studies on inhibitors of skin-tumor promotion, I. Inhibitory effects of triterpenes from Euptelea polyandra on Epstein-Barr virus activation” (J Nat Prod, 1987)
